Experimental data reported in US8097422B2, “Kir channel modulators” (Salk Institute for Biological Studies, priority 2007, dated 2012).
Numbering of substitutions follows the chain as printed.

Experiments:
Format in all cases: cell-based
[1] = target: T1, GIRK2 PIP channel (Mus musculus, UniProt P48542, D228N/I234L/N231K); assay: whole-cell patch clamp, GIRK2 PIP chimeric channel; settings: equimolar alcohol series (50 mM)
T1 construct: expressed in transfected cells; host or cells: HEK293 / HEK293T
T1 sequence (P48542 1-425 D228N/N231K/I234L): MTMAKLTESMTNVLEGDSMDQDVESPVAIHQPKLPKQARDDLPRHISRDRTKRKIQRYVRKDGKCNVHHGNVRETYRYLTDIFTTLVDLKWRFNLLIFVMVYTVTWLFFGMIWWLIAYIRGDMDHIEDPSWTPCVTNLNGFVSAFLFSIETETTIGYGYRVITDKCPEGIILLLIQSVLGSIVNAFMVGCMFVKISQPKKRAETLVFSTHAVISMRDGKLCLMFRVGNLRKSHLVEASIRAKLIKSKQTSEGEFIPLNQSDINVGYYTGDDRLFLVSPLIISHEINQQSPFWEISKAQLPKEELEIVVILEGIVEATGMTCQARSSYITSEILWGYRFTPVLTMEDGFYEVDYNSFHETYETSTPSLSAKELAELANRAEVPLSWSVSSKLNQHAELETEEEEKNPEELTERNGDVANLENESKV
Procedure: To test whether this sensitivity to inhibition would be altered by mutation at the MPD-bound hydrophobic pocket, Leu257 was mutated to Trp for this channel.
HEK 293T cells were cultured in DMEM supplemented with 10% FBS, and 1× Glutamax (Invitrogen) in a humidified 37° incubator with 5% CO2. Cells were plated in a 12 well dish, and were transiently transfected using Lipofectamine 2000 (Invitrogen). After 12-24 hrs, cells were re-plated to 12-mm glass coverslips coated with poly-D-Lysine (20 microgram/ml).
HEK293 cells were transfected with 0.2 micrograms of channel cDNA. The cells were co-transfected with 0.04 micrograms of eYFP cDNA to identify transfected cells. 0.8 micrograms of Muscarinic Receptor 2 (M2R) was also co-transfected for experiments with Carbachol. For experiments with and without m-phosducin, 0.8 ug of m-phosducin cDNA was used versus a PCDNA3.1 vector control.
Whole-cell patch clamp recordings were performed 24-72 hrs after transfection. Borosilicate glass electrodes (Warner Instruments) of 5-7 milliohms filled with intracellular solution (130 mM KCl, 20 mM NaCl, 5 mM EGTA, 2.56 mM K2ATP, 5.46 mM MgCl2, 0.30 mM Li2GTP, and 10 mM HEPES (pH 7.4)) was used. Membrane currents were recorded using Axopatch 200B (Axon Instruments) amplifier, adjusted electronically for cell capacitance and series resistance (80-100%), filtered at 1 kHz with an 8-pole Bessel filter and digitized at 5 kHz with a Digidata 1200 interface (Axon Instruments). The cells rapidly perfused with a 20 mM K^+ (20K) solution (20 mM KCl, 140 mM NaCl, 0.5 mM CaCl2, 2 mM MgCl2 and 10 mM HEPES (pH7.4)). Alcohols, 5 μM Carbachol, and 1 mM BaCl2 (diluted in 20K solution) were applied from outside the cell with the rapid perfusion system (Warner Instruments). Whole-cell currents were measured using a ramp protocol that holds at −40 mV, steps to −100 mV then ramps to +50 mV and repeats every 2 seconds. Current-voltage relationships also were obtained from the ramp protocol. This protocol was used to measure the inwardly rectifying currents at −100 mV and to ensure stability of recording by monitoring a reversal potential and inward rectification. Current density was measured by dividing inward current at −100 mV by membrane capacitance that was compensated during the recording. Basal currents were measured as the Ba^++ blocked inward currents at −100 mV. Alcohol and Carbachol modulated currents were measured by averaging two consecutive current readings upon reaching steady state, and subtracting the averaged basal current before and after the application of modulator. Pooled data are presented as Mean±SEM and evaluated for statistical significance by a 1-way ANOVA, followed by Bonferroni's multiple comparison post-hoc test.

[2] = target: T2, GIRK2 PIP S148T mutant channel (Mus musculus, UniProt P48542, D228N/I234L/M344L/N231K/S148T); assay: whole-cell patch clamp, GIRK2 PIP S148T mutant channel; settings: 50 mM alcohols
T2 construct: expressed in transfected cells; host or cells: HEK293 / HEK293T
T2 sequence (P48542 1-425 S148T/D228N/N231K/I234L/M344L): T1 sequence (P48542 1-425 D228N/N231K/I234L) with S148T, M344L
Procedure: (§1) Point mutations were introduced by Quickchange site directed mutagenesis kit (Stratagene). The GIRK2 PIP mutant was generated by overlap-PCR method. […] Mutations were confirmed by automated DNA sequencing methods. […] Cells were plated in a 12 well dish, and were transiently transfected using Lipofectamine 2000 (Invitrogen). After 12-24 hrs, cells were re-plated to 12-mm glass coverslips coated with poly-D-[…] microgram/ml). […] The cells were co-transfected with 0.04 micrograms of eYFP cDNA to identify transfected cells. 0.8 micrograms of Muscarinic Receptor 2 (M2R) was also co-transfected for experiments with Carbachol. […] Whole-cell patch clamp recordings were performed 24-72 hrs after transfection. […] Alcohols, 5 μM Carbachol, and 1 mM BaCl2 (diluted in 20K solution) were applied from outside the cell with the rapid perfusion system (Warner Instruments). […] Current-voltage relationships also were obtained from the ramp protocol. This protocol was used to measure the inwardly rectifying currents at -100 mV and to ensure stability of recording by monitoring a reversal potential and inward rectification. […] Alcohol and Carbachol modulated currents were measured by averaging two consecutive current readings upon reaching steady state, and subtracting the averaged basal current before and after the application of modulator.

[3] = target: T3, GIRK4 (Rattus norvegicus, UniProt P48548); assay: whole-cell patch clamp, GIRK4 homo-tetramers; settings: n=7
T3 construct: expressed in transfected cells; host or cells: HEK293 / HEK293T
T3 sequence (P48548 1-419): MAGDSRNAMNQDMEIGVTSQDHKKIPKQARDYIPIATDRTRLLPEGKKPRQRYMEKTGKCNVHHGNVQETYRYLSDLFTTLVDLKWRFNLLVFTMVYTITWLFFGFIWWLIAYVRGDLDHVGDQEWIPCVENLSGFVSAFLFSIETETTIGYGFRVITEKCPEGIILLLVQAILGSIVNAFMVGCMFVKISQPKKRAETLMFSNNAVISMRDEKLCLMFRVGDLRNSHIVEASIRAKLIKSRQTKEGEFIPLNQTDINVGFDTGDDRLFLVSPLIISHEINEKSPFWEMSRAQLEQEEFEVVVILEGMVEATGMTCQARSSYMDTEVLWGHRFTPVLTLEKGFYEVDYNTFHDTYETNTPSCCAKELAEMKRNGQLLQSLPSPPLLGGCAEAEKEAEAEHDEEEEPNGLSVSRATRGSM
Procedure: as §1

[4] = target: T4, GIRK4 S143T mutant channel (GIRK4*) (Rattus norvegicus, UniProt P48548, S143T); assay: whole-cell patch clamp, GIRK4 S143T (GIRK4*) channel; settings: for modulation of GIRK4 S143T mutant channel, mean percentage change from basal: n=7; for activation of GIRK4*, mean percentage change from basal current: wild type GIRK4*, n=8
T4 construct: expressed in transfected cells; host or cells: HEK293 / HEK293T
T4 sequence (P48548 1-419 S143T): T3 sequence (P48548 1-419) with S143T
Procedure: as §1

[5] = target: T5, GIRK4* L252W mutant channel (Rattus norvegicus, UniProt P48548, L252W/S143T); assay: whole-cell patch clamp, GIRK4* L252W mutant channel; settings: for modulation of GIRK4* L252W mutant channel, percentage change from basal (negative = inhibition): n=8
T5 construct: expressed in transfected cells; host or cells: HEK293 / HEK293T
T5 sequence (P48548 1-419 S143T/L252W): T3 sequence (P48548 1-419) with S143T, L252W
Procedure: as §1

Row | Compound | inhibition of GIRK2 PIP channel, percentage inhibition [1] [%] | inhibition of GIRK2 PIP S148T, percentage inhibition [2] [%] | modulation of GIRK4 currents, mean percentage change from basal (negative = inhibition) [3] [%] | modulation of GIRK4 S143T mutant channel, mean percentage change from basal [4] [%] | activation of GIRK4*, mean percentage change from basal current [4] [%] | modulation of GIRK4* L252W mutant channel, percentage change from basal (negative = inhibition) [5] [%] | Carb activation of GIRK4* wild type, % of basal current ([4]; 5 μM Carbachol, M2R co-transfected) [%] | Carb (G-protein mediated) activation, GIRK4* L252 Trp ([5]; 5 μM Carbachol) [%]
1 | 1-butanol [1-BuOH] | −97±1 | −28±1 | −70±3 | 23±3 | – | – | – | –
2 | 1-propanol [1-PrOH] | −87±2 | −15±1 | 43±7 | 51±6 | 64±7 | −19±2 | – | –
3 | CC(O)CC(C)(C)O (racemic) [MPD, 2-methyl-2,4-pentanediol] | −80±2 | −36±1 | 55±8 | 87±12 | 113±14 | – | – | –
4 | C[N+](C)(C)CCOC(N)=O [Carbachol] | – | – | – | – | – | – | 231±38 | 23±3
5 | CCO [EtOH, ethanol] | −18±2 | −4±1 | 43±6 | 35±4 | 36±3 | 5±2 | – | –
